Measured values from publication PMC5508670, “Conformationally restricted calpain inhibitors” (Chemical Science, 2015).
pIC50, pKi: −log10 of the molar value. Like-named read-outs stand apart in the source and are kept apart here.

How the values were obtained:
calpain-I [1] = biological target: T1, calpain-I (Sus scrofa, UniProt P35750); assay: FRET-based calpain-I inhibition assay in the presence and absence of 10 mM DTT; format: biochemical, porcine
T1 construct: purchased CalBiochem
T1 sequence (P35750 1-714): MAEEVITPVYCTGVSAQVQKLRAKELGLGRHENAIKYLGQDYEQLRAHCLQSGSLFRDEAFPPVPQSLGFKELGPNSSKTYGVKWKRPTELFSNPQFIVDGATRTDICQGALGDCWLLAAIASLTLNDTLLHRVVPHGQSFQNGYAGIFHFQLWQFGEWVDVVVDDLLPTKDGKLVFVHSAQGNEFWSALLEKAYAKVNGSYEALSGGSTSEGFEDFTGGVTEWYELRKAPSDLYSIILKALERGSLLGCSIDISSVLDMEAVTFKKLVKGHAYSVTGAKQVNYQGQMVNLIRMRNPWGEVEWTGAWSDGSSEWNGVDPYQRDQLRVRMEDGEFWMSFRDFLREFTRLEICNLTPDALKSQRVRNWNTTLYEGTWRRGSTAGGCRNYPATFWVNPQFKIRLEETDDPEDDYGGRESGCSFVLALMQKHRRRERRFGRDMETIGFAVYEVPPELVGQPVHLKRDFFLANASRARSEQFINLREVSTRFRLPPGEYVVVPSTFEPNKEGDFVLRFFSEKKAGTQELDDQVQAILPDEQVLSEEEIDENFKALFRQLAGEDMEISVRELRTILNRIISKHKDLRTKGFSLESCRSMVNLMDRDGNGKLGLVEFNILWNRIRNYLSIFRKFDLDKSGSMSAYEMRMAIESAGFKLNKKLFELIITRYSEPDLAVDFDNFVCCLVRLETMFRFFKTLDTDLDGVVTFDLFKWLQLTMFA
T1 sequence (P04574 1-266): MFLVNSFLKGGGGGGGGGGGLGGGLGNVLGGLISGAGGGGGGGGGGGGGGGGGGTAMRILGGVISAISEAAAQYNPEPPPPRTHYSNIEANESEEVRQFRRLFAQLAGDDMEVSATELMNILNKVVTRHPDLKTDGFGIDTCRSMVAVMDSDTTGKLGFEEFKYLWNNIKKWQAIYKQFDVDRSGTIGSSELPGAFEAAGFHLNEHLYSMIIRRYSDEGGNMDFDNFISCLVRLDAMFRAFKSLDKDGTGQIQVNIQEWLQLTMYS
Procedure: The inhibitory properties of a series of oxidised and reduced α-mercaptoacrylic acid derivatives towards calpain-I (Fig. 4) were assessed in a FRET-based assay in the presence and absence of 10 mM dithiothreitol (DTT).[24],[25] To ensure complete oxidation, compounds were left in the assay solution for 3 hours prior to performing the assay (vide supra and ESI ^†). In the absence of inhibitors there was no observable difference in enzyme activity when assayed under both oxidising and reducing conditions.
Protein Expression, Crystallisation and FRET Based Inhibition Assay Methods […]
FRET based Inhibition Assay
This assay employed a peptide from the calpain-1 substrate α-spectrin, with fluorescein at one terminus internally quenched by DABCYL and the other (H2N-K(FAM)-EVYGMMK(DABCYL)-OH).11 Cleavage by calpain-1 occurs between the Tyr-Gly residues and results in enhanced fluorescence as the quenching effect is relieved. The assays were performed using purified porcine Calpain-1 (CalBiochem, 10 nM) and fluorogenic calpain-1 substrate (Merck, 1 µM) in an assay buffer consisting of HEPES (10 mM) pH 6.8; EDTA (0.5 mM); bovine serum albumin (0.1%). The assay was performed using a fluorescent plate reader (BMG Optistar) in an assay volume of 100 µl at a temperature of 37°C, using an excitation band pass filter centred at 485 nm and emission detected at 520 nm. The compounds to be tested for inhibition were added to the assay mixture before the reaction was initated by the addition of CaCl2 (5 mM).
None of the compounds had significant fluorescence at this wavelength and correction for this was unnecessary. The compounds were dissolved in DMSO at 50 mM and diluted into assay buffer to give range of concentrations from 5 nM to 50 µM. In each assay run, the effect of DMSO alone over the concentration used was also measured. Although there was no effect of DM SO at lower concentrations, in some assay runs, DM SO at 0.005%-0.5% produced some inhibitory effect. This DM SO effect (which was only relevant for compounds with poor inhibitory ability) was subtracted before constructing the inhibition curves.
FRET based inhibition assay (DTT addition)
The same procedure was used as described above except with assay buffer containing HEPES (10 mM) pH 6.8; EDTA (0.5 mM); bovine serum albumin (0.1%) and DTT (10 mM).

Calpain-I [2] = biological target: Calpain-I; set-up: method as in PMID 8692879; details: cited from earlier work
Calpain-II = biological target: Calpain-II; set-up: method as in PMID 8692879; details: cited from earlier work
[3] = Oxidation of sulfhydryl to disulfide in solution (UV-VIS / 1H-NMR); format: physicochemical
Procedure: The rate of conversion of 3 to its disulfide form was dependent upon both the concentration of the compound and the nature of the solution. […] […] Compound 4 was then added to preformed crystals of PEF(S).

[4] = absence of DTT (oxidised disulfide form), compounds left 3 hours in assay solution before the assay, read-out: IC50, Disulfide
[5] = absence of DTT (disulfide form), read-out: IC50 of oxidised compounds
[6] = presence of 10 mM DTT (reduced sulfhydryl form), read-out: IC50, Sulfhydryl
[7] = thioethers, no DTT, read-out: IC50 (No DTT)
[8] = thioethers, DTT had no effect on the potency, read-out: IC50
[9] = thioethers, 10 mM DTT, read-out: IC50 (DTT)

| pIC50 (calpain-I [1]; [4]) | pIC50 (calpain-I [1]; [6]) | SMILES | other results |
| --- | --- | --- | --- |
|  | 5.40 | O=C(O)/C(S)=C/c1c[nH]c2c(Cl)cccc12 [compound 36] |  |
|  | 6.30 | O=C(O)/C(S)=C/c1c[nH]c2cc(I)ccc12 [compound 34] |  |
|  | 6.00 | O=C(O)/C(S)=C/c1c[nH]c2cc(Cl)ccc12 [compound 30] |  |
|  | 6.30 | O=C(O)/C(S)=C/c1c[nH]c2ccc(I)cc12 [compound 28] |  |
|  | 5.82 | O=C(O)/C(S)=C/c1c[nH]c2ccc(Cl)cc12 [compound 24] |  |
|  | 4.22 | O=C(O)/C(S)=C/c1ccccc1Cl [compound 7] |  |
|  | 5.52 | O=C(O)/C(S)=C/c1cccc(I)c1 [compound 16] |  |
|  | 6.30 | O=C(O)/C(S)=C/c1c[nH]c2cc(Br)ccc12 [compound 3, (Z)-3-(6-bromoindole-3-yl)-2-mercaptoacrylic acid] | time to complete conversion to oxidised (disulfide) form ([3]; 100 μM in 100 mM KiPO4, pH 7.0, room temperature, UV-VIS): 3 h; time after which oxidation was complete ([3]; 50 mM in DMSO, room temperature, 1H-NMR): 24 h |
|  | 4.30 | O=C(O)/C(S)=C/c1ccccc1F [compound 5] |  |
|  | 4.30 | O=C(O)/C(S)=C/c1ccccc1Br [compound 9] |  |
|  | 6.30 | O=C(O)/C(S)=C/c1c[nH]c2ccc(Br)cc12 [compound 26] |  |
|  | 4.30 | O=C(O)/C(S)=C/c1cccc(F)c1 [compound 11] |  |
|  | 4.30 | O=C(O)/C(S)=C/c1ccc(F)cc1 [compound 18] |  |
| 7.70 |  | O=C(O)/C(=C/c1c[nH]c2c(I)cccc12)SS/C(=C\c1c[nH]c2c(I)cccc12)C(=O)O [compound 39] |  |
|  | 5.70 | O=C(O)/C(S)=C/c1c[nH]c2c(I)cccc12 [compound 38] |  |

The next lines start with the compound.

| SMILES | pIC50 (calpain-I [1]; [4]) | pIC50 (calpain-I [1]; [6]) | other results |
| --- | --- | --- | --- |
| O=C(O)/C(=C/c1ccc(F)cc1)SS/C(=C\c1ccc(F)cc1)C(=O)O [compound 19] | 7.30 |  |  |
| O=C(O)/C(=C/c1c[nH]c2cc(Br)ccc12)SS/C(=C\c1c[nH]c2cc(Br)ccc12)C(=O)O [compound 4, (2Z,2′Z)-2,2′-disulfanediylbis(3-(6-bromoindol-3-yl)acrylic acid)] |  |  | pIC50 (calpain-I [1]; disulfide prepared by iodine mediated oxidation and in situ prior to the assay, read-out: IC50 (dose response curve, Figure S8)): 6.70 |
| O=C(O)/C(=C/c1ccc(I)cc1)SS/C(=C\c1ccc(I)cc1)C(=O)O [compound 23] |  |  | pIC50 (calpain-I [1]; [5]): 8.12 |
| O=C(O)/C(S)=C/c1ccc(I)cc1 [PD150606] |  |  | pKi (Calpain-I [2]): 6.68; pKi (Calpain-II): 6.43 |
| O=C(O)/C(=C/c1c[nH]c2cc(Cl)ccc12)SS/C(=C\c1c[nH]c2cc(Cl)ccc12)C(=O)O [compound 31] | 7.55 |  |  |
| O=C(O)/C(=C/c1c[nH]c2cc(I)ccc12)SS/C(=C\c1c[nH]c2cc(I)ccc12)C(=O)O [compound 35] | 8.00 |  |  |
| O=C(O)/C(=C/c1c[nH]c2c(Cl)cccc12)SS/C(=C\c1c[nH]c2c(Cl)cccc12)C(=O)O [compound 37] | 7.64 |  |  |
| O=C(O)/C(=C/c1cccc(I)c1)SS/C(=C\c1cccc(I)c1)C(=O)O [compound 17] |  |  | pIC50 (calpain-I [1]; [5]): 7.60 |
| O=C(O)/C(=C/c1cccc(Cl)c1)CS/C(=C\c1c[nH]c2ccc(Br)cc12)C(=O)O [compound 42, (Z)-3-(5-bromoindol-3-yl)-2-(((Z)-2-carboxy-3-(3-chlorophenyl)allyl)thio)acrylic acid] |  |  | pIC50 (calpain-I [1]; [7]): 5.70; pIC50 (calpain-I [1]; [8]): 5.74 |
| O=C(O)/C(S)=C/c1c[nH]c2ccc(F)cc12 [PD151746] |  |  | pKi (Calpain-I [2]): 6.59; pKi (Calpain-II): 5.27 |
| O=C(O)/C(=C/c1ccc(Cl)cc1)SS/C(=C\c1ccc(Cl)cc1)C(=O)O [compound 21] | 8.00 |  |  |
| O=C(O)/C(=C/c1c[nH]c2ccc(Cl)cc12)SS/C(=C\c1c[nH]c2ccc(Cl)cc12)C(=O)O [compound 25] | 7.74 |  |  |
| O=C(O)/C(=C/c1ccc(Br)cc1)CS/C(=C\c1ccc(Br)cc1)C(=O)O [compound 40, (Z)-3-(4-Bromophenyl)-2-((((Z)-2-(4-bromophenyl)-1-carboxyvinyl)thio)methyl)acrylic acid] |  |  | pIC50 (calpain-I [1]; [9]): 5.00; pIC50 (calpain-I [1]; [7]): 5.00 |
| O=C(O)/C(=C/c1c[nH]c2ccc(I)cc12)SS/C(=C\c1c[nH]c2ccc(I)cc12)C(=O)O [compound 29] | 7.82 |  |  |
| O=C(O)/C(=C/c1ccccc1F)SS/C(=C\c1ccccc1F)C(=O)O [compound 6] | 7.19 |  |  |
| O=C(O)/C(=C/c1ccc(Br)cc1)CS/C(=C\c1c[nH]c2cc(Br)ccc12)C(=O)O [compound 43, (Z)-3-(6-bromoindol-3-yl)-2-(((Z)-3-(4-bromophenyl)-2-carboxyallyl)thio)acrylic acid] |  |  | pIC50 (calpain-I [1]; [9]): 5.00; pIC50 (calpain-I [1]; [7]): 5.00 |
| O=C(O)/C(=C/c1c[nH]c2ccc(Br)cc12)SS/C(=C\c1c[nH]c2ccc(Br)cc12)C(=O)O [compound 27] | 8.00 |  |  |
| O=C(O)/C(=C/c1ccccc1Br)SS/C(=C\c1ccccc1Br)C(=O)O [compound 10] | 6.60 |  |  |
| O=C(O)/C(=C/c1cccc(Cl)c1)CS/C(=C\c1ccc(Cl)cc1)C(=O)O [compound 41, (Z)-3-(3-chlorophenyl)-2-((((Z)-2-(4-chlorophenyl)-1-carboxyvinyl)thio)methyl)acrylic acid] |  |  | pIC50 (calpain-I [1]; [9]): < 4.00; pIC50 (calpain-I [1]; [7]): < 4.00; pIC50 (calpain-I [1]; [8]): < 4.00 |
